Test results as given in patent publication US20030180292A1, “Treatment of B cell malignancies using anti-CD40L antibodies in combination with anti-CD20 antibodies and/or chemotherapeutics and radiotherapy” (IDEC PHARMACEUTICALS, priority 2002, published 2003).

Columns and labels:
DHL-4 cells = assay: Adriamycin (ADM) cytotoxicity of DHL-4 cells with sCD40L and IDEC-131, Alamar Blue assay; format: cell-based; conditions: 5 days
Protocol: Initially, the minimum concentration of ADM cytotoxic to DHL-4 cells was determined by exposing DHL-4 cells for 4 hours to different concentrations of ADM. The cell cytotoxicity of DHL-4 cells after 5 days in culture was measured by Alamar Blue, a dye-reduction assay by live cells (see Gazzano-Santoro et al., J. Immunol. Meth. 202: 163-171 (1997)). Briefly, 1×10^5 DHL-4 cells in growth medium (RMPI-1640 plus 10% Fetal Calf Serum) were incubated with varying concentrations of ADM (1×10^−6 M to 1×10^−8 M) in cell culture tubes at 37° C. for 4 hours. […] Following incubation, plates were cooled by incubating at room temperature for 10 minutes on a shaker, and the intracellular reduction of the dye was determined. Fluorescence was read using a 96-well fluorometer with excitation at 530 nm and emission at 590 nm. The results are expressed as relative fluorescence units (RFU). The percentage of cytotoxicity was calculated as follows: […]
DHL-4 cells (0.5×10^6 cells/ml) were incubated in the presence of 10 μg/ml of soluble CD40L (sCD40L, P. A. Brams, E. A. Padlan, K. Hariharan, K. Slater, J. Leonard, R. Noelle, and R. Newman, “A humanized anti-human CD154 monoclonal antibody blocks CD154-CD40 mediated human B cell activation,” (manuscript submitted)) for 1 hour at 37° C. […] After 5 days, the cytotoxicity was measured by Alamar Blue dye-uptake assay, as described.

B-CLL cells [1] = assay: Survival of B-CLL cells in culture, Trypan blue dye exclusion; format: cell-based, human; conditions: for % Viability (+) CD40L: sCD40L 5 μg/ml
Protocol: Peripheral blood mononuclear cells (PBMC) were isolated from a CLL patient's blood using a Ficoll-Hypaque gradient centrifulation. Viability was determined by Tryan blue dye exclusion and was >98%. […] CLL cells (PBMC) were cultured in CLL growth medium (e.g. RPMI-1640 medium supplemented with 5% FCS or 2% of autologous donor plasma, supplemented with 2 mM L-Glutamine and 100 U/ml Penicillin-Streptomycin). In addition. for some experiments, CD19^+ B-cells were purified using CD19^+ Dynabeads™ as per manufacture's instructions (Dynal, Cat. #111.03/111.04) and cultured as above. CLL or purified B-CLL cells cultured in growth medium mostly under went spontaneous apoptotic cell death. […] Table II indicates the cell viability of CD19^+ B-CLL cells grown in the presence or absence of sCD40L (5 μg/ml) at different time points and indicates the longer survival of CLL cells. B-CLL cells from Patient #1 cultured with sCD40L had ≧60% viability for greater than 2 weeks, whereas cells grown in the absence of sCD40L had less than 10% viability.

[2] = test system: HLA-DR expression on CD19+ CLL cells; assay: HLA-DR expression on CD19+ CLL cells by flow cytometry; format: cell-based, human; conditions: for HLA-DR+ % Positive / HLA-DR+ MFI: CD19+ B-cells, 5 μg/ml CD40L
Protocol: To determine whether the CD40L-CD40 signal transduction pathway is intact, CLL cells from CLL patients were cultured (5×10^5 cells/ml) with and without 5 μg/ml of CD40L at 37° C. At 48 hours and 144 hours, the class II molecule, HLA-DR expression, was determined on […] cells by flow cytometry using standard procedures. Briefly, cultured lymphocytes were harvested at different time points and analyzed for surface expression of molecules using antibodies coupled to either fluorescein (FITC) or phycoerythrin (PE) for single or double staining using a FACScan (Becton-Dickinson) flow cytometer. To stain for flow cytometry, 1×10^6 cells in culture tubes were incubated with appropriate antibodies as follows: anti-CD45-FITC to gate lymphocyte population on a scatter plot; anti-CD19-PE (Pharmingen. Cat. #30655) or anti-CD20-FITC (Pharmingen; Cat. #33264) antibodies to determine the CD19^+ and/or […] B-cells; anti-CD3-FITC antibodies (Pharmingen; Cat. #30104) to gate-off the T cells; anti-CD19-RPE and anti-HLA-DR-FITC antibodies (Pharmingen; Cat. #32384) to determine the Pclass II expression on CD19^+ cells. Cells were washed once by centrifugation (at 200×g, for 6 min.) with 2 ml cold PBS and incubated with antibody for 30 min. on ice, after which the cells washed once, fixed in 0.5% paraformaldehyde and stored at 4° C. until analyzed. Flow cytometry data was acquired on FACsan and analyzed using WinList software (Verity Software House). The machine was set to autogating to allow examination of quadrants containing cells that were single stained with either RPE or FITC, unstained or doubly stained.

B-CLL cells [3] = assay: Growth and survival of B-CLL cells after 7 days in culture, Alamar Blue assay; format: cell-based, human; conditions: cultures with sCD40L
Protocol: Cells in one tube were mixed with sCD40L (5 μl/ml) in equal volume of growth medium, whereas the other tube was incubated with equal volume of growth medium as control. […] Seven days later, cell survival/death in culture was determined by Alamar Blue assay, as described above.

Row | Molecule | cytotoxicity to DHL-4 cells (in words) (DHL-4 cells; exposed to ADM in the absence of sCD40L) | % Viability (+) CD40L (B-CLL cells [1]; B-CLL Patient #1, 0 Hours) | % Viability (+) CD40L (B-CLL cells [1]; B-CLL Patient #1, 48 Hours) | % Viability (+) CD40L (B-CLL cells [1]; B-CLL Patient #1, 96 Hours) | % Viability (+) CD40L (B-CLL cells [1]; B-CLL Patient #1, 144 Hours) | % Viability (+) CD40L (B-CLL cells [1]; B-CLL Patient #2, 0 Hours) | % Viability (+) CD40L (B-CLL cells [1]; B-CLL Patient #2, 72 Hours) | % Viability (+) CD40L (B-CLL cells [1]; B-CLL Patient #2, 96 Hours) | % Viability (+) CD40L (B-CLL cells [1]; B-CLL Patient #2, 144 Hours) | viability of B-CLL cells cultured with sCD40L (B-CLL cells [1]; Patient #1, for greater than 2 weeks) | viability of CLL or purified B-CLL cells in culture (in words) (B-CLL cells [1]; cultured in the presence of sCD40L) | HLA-DR+ % Positive ([2]; 48 hrs) | HLA-DR+ MFI ([2]; 48 hrs) | HLA-DR+ % Positive ([2]; 144 hrs) | HLA-DR+ MFI ([2]; 144 hrs) | HLA-DR expression on B-CLL cells (in words) ([2]; cultured in the presence of sCD40L vs not) | cell survival of B-CLL cells (in words) (B-CLL cells [3]) | survival of DHL-4 cells after ADM treatment (in words) (DHL-4 cells; sCD40L 10 μg/ml, ADM 2×10^−7 M-4×10^−8 M for 4 hours)
1 | COc1cccc2c1C(=O)c1c(O)c3c(c(O)c1C2=O)C[C@@](O)(C(=O)CO)C[C@@H]3O[C@H]1C[C@H](N)[C@H](O)[C@H](C)O1 [ADM, adriamycin] | increased cytotoxicity | – | – | – | – | – | – | – | – | – | – | – | – | – | – | – | – | –
2 | sCD40L: soluble CD40L | – | ≧90% | 90% | 77% | 72% | ≧90% | 72% | 65% | 51% | ≥ 60% | extended their viability | 88% | 101 | 95% | 2943 | higher level of HLA-DR expression | cell survival | prolonged survival
